Assay results taken from patent EP4781984A1 (Beyang Therapeutics Co., Ltd., priority 2023, dated 2025).
In brackets after ≈: the same amount, converted by molar mass.

What was measured:
[1] = Ophthalmic formulations based on in situ salt formation technology: composition and state (Example 8); format: physicochemical; settings: pH ~7
Excerpt: (§1) In the following ophthalmic formulation preparation examples, "solution" refers to a clear, transparent liquid without visible insoluble matter. "Near-clear solution" refers to a liquid that appears close to a solution upon visual observation but may contain a small amount of insoluble particles or have a slightly opaque color. "Suspension" refers to a liquid that is visibly turbid or opaque. "Gel" refers to a completely or partially gel-like solid.
Example 8: Ophthalmic Formulation Based on In Situ Salt Formation Technology
Therefore, by preparing ophthalmic formulation compositions based on in situ salt formation technology, the solubility of the compounds can be further improved.
According to the formulation composition shown in the table below, weigh the compound powder, add 50% of the total volume (v/v) of a 30% (w/v) aqueous solution of hydroxypropyl-β-cyclodextrin (containing surfactant), and disperse by sonication; next, add an appropriate volume of pH regulator and sonicate until clear; then, add an equal volume of buffer containing solubilizer, viscosity modifier, etc., for dilution, and immediately vortex to mix; finally, add an appropriate volume of alkali regulator to adjust the solution pH to approximately 7, to prepare an eye drop formulation.
Using the in situ salt formation method, the compound is first dispersed in a solution containing Hydroxypropyl-β-cyclodextrin, then different acids are added to adjust the pH to 3-5, allowing the compound to fully or nearly fully dissolve, followed by adding the remaining components and adjusting the pH to approximately 7. […] Based on the visual dissolution effect after acid addition, methanesulfonic acid, acetic acid, and lactic acid were preliminarily selected as pH regulators. The preliminarily selected acids were used in subsequent tests with higher compound concentrations. Table 18 Formulation Composition and State

melanin = test: Compound binding to melanin; format: in vitro ADME; settings: cuttlefish (Sepia officinalis), melanin suspension (1 mg/mL), percentage of free drug (not bound to melanin), 2 µM compound, melanin 1 mg/mL in PBS pH 7.4, 37°C
Excerpt: Detection of Compound Binding to Melanin
Pigmented ocular tissues contain melanin within intracellular melanosomes. Drugs bind to melanin to varying degrees, from no binding to extensive binding. Therefore, melanin binding is an important characteristic affecting ocular drug delivery and biodistribution. The ability of compounds to bind to melanin must be considered in ocular drug development.
Melanin derived from cuttlefish (Sepia officinalis) melanin was purchased from Sigma Aldrich (St Louis, MO).
First, prepare a 1 mg/mL melanin suspension in PBS (pH 7.4). As a matrix washing step, suspended particles were centrifuged at 3000 rpm for 5 minutes. The resulting pellet was resuspended in fresh PBS buffer, heated to 37°C with continuous shaking, and incubated for 1 hour. Accurately pipette 2 microliters of test compound stock solution (0.1 mM) into 98 microliters of melanin suspension (1 mg/mL), resulting in a final incubation concentration of 2 µM. Similarly, accurately pipette 2 microliters of stock solution (0.1 mM) into 98 microliters of PBS buffer (containing 0.1% BSA) as a blank control sample. Samples were incubated at 37°C for 2 hours on a shaker (80-90 rpm). Then centrifuged at room temperature. 50 microliters of supernatant was aspirated and added to 50 microliters of precipitation agent (containing internal standard). All samples above were subjected to protein precipitation, centrifuged, the supernatant was taken, diluted with water (if necessary), and then injected for analysis. Simultaneously, high-binding compounds Sunitinib and chloroquine, and the low-binding compound celecoxib were measured as positive controls. An LC-MS/MS analytical method for determining compound concentration was established. The ratio of analyte/internal standard peak areas (Aanalyte/AIS) measured in the samples, calibrated by the dilution factor, was used as the surrogate concentration for data processing. The binding rate of the compound to melanin (Fb) is calculated by the formula: Fb = 100−(Ctest)/(Ccontrol) × 100% [formula]
Ctest is the drug concentration of the compound in the melanin incubation sample or the peak area ratio of the test compound to the internal standard. Ccontrol is the drug concentration of the compound in the blank control sample or the peak area ratio of the test compound to the internal standard. Percentage of free drug (Fu%) = 100 - Fb The binding rates of the compounds of the present invention to melanin are shown in the table below: Table 11. Binding Rate of Compounds to Melanin

[2] = Ophthalmic formulations based on polyethylene glycol series vehicles: composition and state (Example 7); format: physicochemical
Excerpt: as §1
Example 7: Ophthalmic Formulations Based on Polyethylene Glycol Series Vehicles
According to the formulation composition shown in the tables below, weigh the compound powder, add it to polyethylene glycol 400, and sonicate until dissolved or nearly dissolved (heat to 50°C if necessary). Add this to a Tris-HCl buffer solution containing hydroxypropyl-β-cyclodextrin, poloxamer 188, and gellan gum (or other viscosity modifier), vortex to mix, and prepare into an eye drop formulation.

[3] = Thermodynamic solubility test; format: physicochemical; settings: buffer solution, aqueous buffer, thermodynamic from solid; thermodynamic solubility, room temperature, 8 hours shaking; buffers pH 2.0, 6.5, 7.4 used, pH of the tabulated value not given
Description: Solubility Test of Compounds
Table 9. Reagents and Instruments
After sonication for 10 minutes, they were fixed on a shaker and shaken at room temperature for 8 hours. After shaking, they were sonicated for 10 minutes and centrifuged at 13000 rpm for 15 minutes. 0.1 mL of supernatant was aspirated into a new tube, rinsed with 5 mL of buffer by shaking, and the liquid was discarded. 0.5 mL of supernatant was transferred again to a new tube, centrifuged at 13000 rpm for 15 minutes, and the supernatant was taken (diluted with water if necessary) for LC-MS injection analysis. Sample concentrations were quantified using a 3-5 point calibration curve.

EGFR = biological target: T1, EGFR (Homo sapiens, UniProt P00533); test: Kinase inhibitory activity, Mobility Shift Assay (EGFR); format: biochemical
T1 construct: purchased Carna 08-115
Description: Assay for Inhibitory Activity of Compounds Against VEGFR and EGFR Kinases
This assay directly monitors the inhibitory activity of compounds on kinase phosphorylation by measuring non-phosphorylated and phosphorylated substrates in the kinase reaction using Mobility Shift Assays/IMAP™ analysis. Table 2. Reagents and Instruments
Kinase and DTT were added to 1X kinase buffer to form a 2.5X kinase solution; 10 µL of the 2.5X kinase solution was transferred to a 384-well reaction plate, and 1X kinase buffer was added to the negative control wells. The plate was incubated at room temperature for 10 minutes; FAM-labeled peptide, MgCl2, ATP, and other reagents were added to 1X kinase buffer to form a 2.5X substrate solution; 10 µL of the above 2.5X substrate solution was transferred to the 384-well reaction plate; the plate was incubated at 28°C for varying times, and then 25 µL of stop solution was added to the 384-well reaction plate to terminate the reaction. Conversion rate data were read on a CaliperEZ Reader II. […] IC50 values were fitted using XLFit excel add-in version 5.4.0.8. Y = Bottom + (Top−Bottom)/(1 + […]) [formula]
X is the log value of compound concentration, Y is the inhibition rate (% inhibition).

[4] = Table 16: 2 mg/mL, Polyethylene Glycol 400 5, Poloxamer 188 1, Hydroxypropyl-β-cyclodextrin 6, Gellan Gum Gelrite 0.15, Tris-HCl Buffer (pH 6.8) 25mM
[5] = Table 13: 1mg/ml, Polyethylene glycol 400 5, Hydroxypropyl-β-cyclodextrin 10, Tris-HCl buffer (pH 8.3) 50mM, Carbomer 0.48, Poloxamer 188 1
[6] = Table 14: 5mg/ml, Polyethylene glycol 400 10, Hydroxypropyl-β-cyclodextrin 10, Gellan Gum Gelrite 0.3, Poloxamer 188 1, 0.5 M Tris solution 2, 0.1 M Citric acid 1
[7] = Table 15: 10 mg/mL, Polyethylene glycol 400 10, Hydroxypropyl-β-cyclodextrin 10, Gellan Gum Gelrite 0.3, Poloxamer 188 1, Tris solution and Citric acid

T1 sequence (P00533 25-1210): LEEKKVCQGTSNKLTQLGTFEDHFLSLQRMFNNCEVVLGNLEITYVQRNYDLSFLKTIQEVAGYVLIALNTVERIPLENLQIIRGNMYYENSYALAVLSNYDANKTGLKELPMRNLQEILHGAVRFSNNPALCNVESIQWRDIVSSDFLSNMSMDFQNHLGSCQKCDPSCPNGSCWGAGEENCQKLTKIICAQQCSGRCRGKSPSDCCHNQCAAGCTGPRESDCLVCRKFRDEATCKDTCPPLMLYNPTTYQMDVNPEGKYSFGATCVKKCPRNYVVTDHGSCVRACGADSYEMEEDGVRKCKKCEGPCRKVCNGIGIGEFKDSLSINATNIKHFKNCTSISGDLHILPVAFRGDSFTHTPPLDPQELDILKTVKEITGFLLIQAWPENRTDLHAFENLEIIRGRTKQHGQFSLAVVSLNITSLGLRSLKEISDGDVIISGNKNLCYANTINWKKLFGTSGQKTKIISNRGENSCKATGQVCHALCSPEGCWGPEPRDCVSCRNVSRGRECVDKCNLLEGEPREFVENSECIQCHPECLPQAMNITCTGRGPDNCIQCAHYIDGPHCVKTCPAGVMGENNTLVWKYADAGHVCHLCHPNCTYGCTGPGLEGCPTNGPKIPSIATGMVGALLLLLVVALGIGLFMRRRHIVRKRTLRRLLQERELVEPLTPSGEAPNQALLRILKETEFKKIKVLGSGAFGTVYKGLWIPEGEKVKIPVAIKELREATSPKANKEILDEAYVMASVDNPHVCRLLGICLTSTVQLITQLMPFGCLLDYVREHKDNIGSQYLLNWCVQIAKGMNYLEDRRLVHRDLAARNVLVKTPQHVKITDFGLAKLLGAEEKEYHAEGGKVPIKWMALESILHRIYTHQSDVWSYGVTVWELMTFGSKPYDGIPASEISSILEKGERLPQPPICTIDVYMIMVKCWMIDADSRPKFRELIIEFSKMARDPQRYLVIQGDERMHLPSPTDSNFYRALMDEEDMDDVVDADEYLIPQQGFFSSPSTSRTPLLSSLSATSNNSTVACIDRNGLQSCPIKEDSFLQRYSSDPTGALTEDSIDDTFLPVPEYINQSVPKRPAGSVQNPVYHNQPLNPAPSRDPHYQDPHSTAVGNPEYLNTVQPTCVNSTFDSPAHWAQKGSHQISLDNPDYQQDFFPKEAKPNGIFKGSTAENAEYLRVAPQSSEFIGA

fraction unbound at 2 h, 2 µM (melanin)	State Description: pH [2, 4]	State Description: state [2, 4]	solubility at 8 h [3]	State Description: pH [2, 7]	State Description: state [2, 7]	Osmolality (mOsm/kg) [2, 4]	Structure (SMILES)	also measured
> 0.05	~7	solution	118 µg/mL (≈ 230 µM)				O=C(NC1CC1)c1cccc(F)c1Sc1ccc2c(/C=C/c3ccc(CN4CCCC4)cn3)n[nH]c2c1 [Compound I-67, N-cyclopropyl-3-fluoro-2-({3-[(E)-2-{5-[(pyrrolidin-1-yl)methyl]pyridin-2-yl}ethenyl]-1H-indazol-6-yl}thio)benzamide]	State Description ([1]; Table 19, Compound 5 mg/ml, 1M Benzenesulfonic Acid 1%, no Polyoxyethylene castor oil EL, no alkali added): solution; State Description ([1]; Table 19, Compound 5 mg/ml, 1M Methanesulfonic Acid 1%, Polyoxyethylene castor oil EL 1%, 0.5M Tris 0.5%): solution; State Description ([1]; Table 19, Compound 5 mg/ml, 1M Methanesulfonic Acid 1%, no Polyoxyethylene castor oil EL, 0.5M Tris 0.5%): near-clear solution; State Description ([1]; Table 19, Compound 10 mg/ml, 1M Acetic Acid 2%, no Polyoxyethylene castor oil EL, 0.5M Tris 1%): solution; State Description ([1]; Table 19, Compound 10 mg/ml, 1M Lactic Acid 2%, no Polyoxyethylene castor oil EL, 0.5M Tris 1%): solution; State Description ([1]; Table 19, Compound 20 mg/ml, 1M Methanesulfonic Acid 4%, Polyoxyethylene castor oil EL 1%, 0.5M Tris 1.5%): near-clear solution
	~7	solution					CCNC(=O)c1cccc(F)c1Sc1ccc2c(/C=C/c3ccc(CN4CCCC4)cn3)n[nH]c2c1 [Compound I-75, N-ethyl-3-fluoro-2-({3-[(E)-2-{5-[(pyrrolidin-1-yl)methyl]pyridin-2-yl}ethenyl]-1H-indazol-6-yl}sulfanyl)benzamide]	
> 0.05	~7	solution	599 µg/mL (≈ 1160 µM)	~5.5	gel	~300 mOsm/kg	CCN(CC)Cc1ccc(/C=C/c2n[nH]c3cc(Sc4ccc(F)cc4C(=O)NC4CC4)ccc23)nc1 [Compound I-84, N-cyclopropyl-5-fluoro-2-({3-[(E)-2-{5-[(diethylamino)methyl]pyridin-2-yl}ethenyl]-1H-indazol-6-yl}thio)benzamide]	State Description: pH [2, 5]: ~5; State Description: state [2, 5]: homogeneous suspension; State Description: pH [2, 6]: ~7.5; State Description: state [2, 6]: near-clear solution
0.01 to 0.05	~7	solution	1130 µg/mL (≈ 2320 µM)	~5.5	near-clear solution	~300 mOsm/kg	CCNC(=O)c1ccccc1Sc1ccc2c(/C=C/c3ccc(CN(CC)CC)cn3)n[nH]c2c1 [Compound I-86, 2-({3-[(E)-2-{5-[(diethylamino)methyl]pyridin-2-yl}ethenyl]-1H-indazol-6-yl}thio)-N-ethylbenzamide]	
> 0.05	~7	solution	2180 µg/mL (≈ 4200 µM)			~300 mOsm/kg	CCNC(=O)c1cc(F)ccc1Sc1ccc2c(/C=C/c3cnn(CCCN4CCCC4)c3)n[nH]c2c1 [Compound I-104, N-ethyl-5-fluoro-2-({3-[(E)-2-{1-[3-(pyrrolidin-1-yl)propyl]-1H-pyrazol-4-yl}ethenyl]-1H-indazol-6-yl}sulfanyl)benzamide]	IC50 (EGFR): > 60 µM
							O=C(NC1CC1)c1ccccc1Sc1ccc2c(/C=C/c3cc(OCCN4CCCC4)ccn3)n[nH]c2c1 [Compound I-110, N-cyclopropyl-2-({3-[(E)-2-{4-[2-(pyrrolidin-1-yl)ethoxy]pyridin-2-yl}ethenyl]-1H-indazol-6-yl}sulfanyl)benzamide]	State Description ([1]; Table 20, Compound 10 mg/ml, 1M Methanesulfonic Acid 2%, Polyoxyethylene castor oil EL 1%, 0.5M Tris 2%): near-clear solution; State Description ([1]; Table 20, Compound 20 mg/ml, 1M Methanesulfonic Acid 4%, Polyoxyethylene castor oil EL 1%, 0.5M Tris 2%): near-clear solution
